Reference: patent publication US20120128607A1, “EXTRACT OF WHOLE SEEDS OF MORNINGA SP, AND USE THEREOF IN COSMETIC AND/OR DERMATOLOGICAL COMPOSITIONS” (PIERRE FABRE DERMO-COSMETIQUE, priority 2009, published 2012)
Values belong to the molecule of their own block, whether it stands above or below them.

Columns and labels:
[1] = DPPH test (antioxidant activity); details: methanolic solution of DPPH at 0.06 mM, absorption at 517 nm
Text: The antioxidant activity of the seed extract of Moringa oleifera according to the present invention has been evaluated with the DPPH test. This test is based on the measure of the capacity for trapping antioxidants of the stable radical 2.2-diphenyl-1-picrylhydrazyl (DPPH). This stable radical, having absorption at 517 nm, is reduced to the corresponding hydrazine when it reacts with a hydrogen donor.
The results obtained are expressed in IC50, corresponding to the concentration giving 50% reduction in absorbance of a methanolic solution of DPPH at 0.06 mM.

[2] = test system: ABC G1; test: Model of differentiation of normal human keratinocytes: gene expression (mRNA) of ABC G1; format: cell-based; details: NHK, with respect to non-treated cells
Text: (§1) First, the effects of extracts according to the invention have first been studied from a model of differentiated normal human keratinocytes (NHK).
(§2) The effect of the extracts of Moringa sp. on the gene expression of different proteins involved in the synthesis or the transport of the epidermal lipids, ABC G1 and hDES2, has been analyzed.
(§3) The results are expressed in percentage of stimulation of the gene expression (mRNA) of different markers of the epidermal differentiation expressed by the NHKs (with respect to the non-treated cells). A significant positive effect is considered from 100% of stimulation.

[3] = test system: hDES2; test: Model of differentiation of normal human keratinocytes: gene expression (mRNA) of hDES2; format: cell-based; details: NHK, with respect to non-treated cells
Text: as §1, §2, §3

IC50 (concentration giving 50% reduction in absorbance of DPPH solution) [1]: 6 to 10 mg/L
Molecule: Vitamin E

Molecule: C=C1CC[C@H](O)C/C1=C/C=C1\CCC[C@]2(C)[C@@H]([C@H](C)CCCC(C)C)CC[C@@H]12 [Vit D3, vitamin D3]
percentage of stimulation of the gene expression (mRNA) of ABC G1 ([2]; 5 μM): 170%
percentage of stimulation of the gene expression (mRNA) of hDES2 ([3]; 5 μM): 780%

Molecule: CN(CCOc1ccc(CC2SC(=O)NC2=O)cc1)c1ccccn1 (centres unmarked) [Roziglitazone, roziglitazone]
percentage of stimulation of the gene expression (mRNA) of ABC G1 ([2]; 10 μM): 330%
percentage of stimulation of the gene expression (mRNA) of hDES2 ([3]; 10 μM): 190%
